Measurements: patent US12570655B2, “Cysteine covalent modifiers of AKT1 and uses thereof” (Terremoto Biosciences, Inc., priority 2023, dated 2026)

What was measured:
[1] = tested on: LAPC4 prostate cancer cells; assay: Antiproliferative effects in LAPC4 cells (CellTiter Glo); type: cell-based; conditions: Homo sapiens, LAPC4, 72 h, LAPC4 cells (AKT1 E17K allele), read-out: LAPC4 proliferation IC50
Method in brief: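 Growth inhibition was measured by CellTiter Glo ATP luminescence after 72 h compound exposure of 1,000 seeded cells/well. The cells were AKT1 E17K-expressing LAPC4 prostate cancer cells maintained in IMDM plus 12% FBS. IC50 values came from Hill-equation fits.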

AKT2 = target: T1, AKT2 (Homo sapiens, UniProt P31751); assay: Live cell AKT2 target engagement by NanoBRET competitive probe displacement; type: cell-based; conditions: HEK293 cells transfected with kinase-NanoLuciferase fusion, 2 h at 37° C.
T1 construct: expressed in transfected cells; host or cells: HEK293
T1 sequence (P31751 whole entry, the tested form may be a part): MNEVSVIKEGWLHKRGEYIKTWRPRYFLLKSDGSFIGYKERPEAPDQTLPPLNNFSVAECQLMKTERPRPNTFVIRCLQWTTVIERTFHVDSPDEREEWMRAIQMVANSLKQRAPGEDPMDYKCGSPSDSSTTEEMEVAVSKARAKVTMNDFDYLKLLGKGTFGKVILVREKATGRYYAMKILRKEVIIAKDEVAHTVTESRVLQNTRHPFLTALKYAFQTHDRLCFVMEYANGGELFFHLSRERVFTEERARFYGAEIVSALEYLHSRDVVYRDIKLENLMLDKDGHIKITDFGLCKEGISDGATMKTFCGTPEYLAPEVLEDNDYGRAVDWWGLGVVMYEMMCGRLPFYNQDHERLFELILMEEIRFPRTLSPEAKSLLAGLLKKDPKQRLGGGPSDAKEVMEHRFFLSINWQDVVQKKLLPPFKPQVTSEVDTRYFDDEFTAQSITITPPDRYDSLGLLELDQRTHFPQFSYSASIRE
Method in brief: (§1)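 IC50 fitted (Hill, log inhibitor vs response) to BRET signal, E600/E460 ratio, measured with extracellular NanoLuc inhibitor present. Intact transfected HEK293 cells bearing NanoLuc-tagged kinase were co-incubated 2 h, 37 °C, with compound dilution series and ~EC50 ATP-competitive fluorescent tracer.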

AKT E17K = target: T2, AKT E17K (Homo sapiens, UniProt P31749, DEL120-128/E133D/E17K/G130S/INS132HT/S129A); assay: Compound 13/AKT E17K co-crystallization complex, crystal structure; type: binding; conditions: FIG. 2C
T2 construct: Akt1(DrLink)-WT/E17K were gene synthesized and cloned by Gibson assembly into the pFastBac vector; His8 followed by TEV site (MSHHHHHHHHGSENLYFQS) (N); DrLink (replaced PH-kinase interdomain linker, part of the construct's name); made in house; host or cells: Akt1(DrLink): baculovirus/Sf9; NB41: E. coli Rosetta 2(DE3)pLysS
T2 sequence (P31749 with tags, fused parts or gaps E17K/DEL120-128/S129A/G130S/INS132HT/E133D): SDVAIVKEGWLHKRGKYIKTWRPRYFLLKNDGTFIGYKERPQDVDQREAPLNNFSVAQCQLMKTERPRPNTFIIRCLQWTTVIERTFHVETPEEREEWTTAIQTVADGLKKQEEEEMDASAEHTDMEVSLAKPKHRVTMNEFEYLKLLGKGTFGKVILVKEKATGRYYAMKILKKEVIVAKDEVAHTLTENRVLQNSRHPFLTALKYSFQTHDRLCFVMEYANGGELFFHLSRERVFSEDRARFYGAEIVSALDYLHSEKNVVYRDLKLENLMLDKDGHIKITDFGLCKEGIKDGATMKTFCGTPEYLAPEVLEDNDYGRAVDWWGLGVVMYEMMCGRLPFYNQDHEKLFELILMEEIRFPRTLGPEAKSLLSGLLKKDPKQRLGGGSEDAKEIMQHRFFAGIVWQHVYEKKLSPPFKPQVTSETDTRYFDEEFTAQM
T2 sequence (as listed by the source partner): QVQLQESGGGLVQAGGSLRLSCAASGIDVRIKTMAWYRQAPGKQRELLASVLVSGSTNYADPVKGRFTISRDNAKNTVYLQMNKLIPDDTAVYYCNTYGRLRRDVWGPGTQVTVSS

AKT1 WT [2] = target: T3, AKT1 WT (Homo sapiens, UniProt P31749, DEL120-128/E133D/G130S/INS132HT/S129A); assay: Co-crystallization showing covalent complex formation with AKT1 WT; conditions: AKT1(DrLink)-WT-NB41 complex, electron density
T3 construct: Akt1(DrLink)-WT/E17K were gene synthesized and cloned by Gibson assembly into the pFastBac vector; His8 followed by TEV site (MSHHHHHHHHGSENLYFQS) (N); DrLink (replaced PH-kinase interdomain linker, part of the construct's name); made in house; host or cells: Akt1(DrLink): baculovirus/Sf9; NB41: E. coli Rosetta 2(DE3)pLysS
Description: (§2) Akt1(DrLink)-NB41 Complex Formation
(§3) NB41 was added to AKT(DrLink)-WT/E17K using a 1.2:1 molar ratio and incubated for 10 minutes at 4° C. Final concentration of 10 mM EDTA was then added to this complex. The complex was purified by gel filtration on Superdex 200 (10/300 GL) column (gel filtration buffer: 20 mM HEPES pH 8.0, 20 mM NaCl, 5 mM DTT). The resulting complex was then concentrated to […] and flash-frozen in liquid nitrogen and stored at −80° C. This complex was then used for crystal formation.
(§4) Crystallization, Data Collection and Structure Determination
(§5) 6 mg/mL AKT1 WT or E17K DrLink-NB41 complex is incubated with 1 mM TMB Compound 13 on ice for 2 hours prior to crystallization trials. Crystals were obtained by the vapor diffusion technique at 20′C after mixing an equal volume of the complex with the well solution containing 17-23% PEG3350, 200 mM Li2SO4, 100 mM Bis Tris Propane pH 6.5-9.0, 10% ethylene glycol. Crystals grew within 3 days. Crystals were cryo protected in mother liquor supplemented with […] and flash cooled in liquid nitrogen for storage and data collection. All diffraction datasets were collected and processed by Helix Biostructures at ESRF beamline TD30B on Sep. 1, 2023. […] The initial structures were determined through molecular replacement with Phaser in CCP4 suite with the structure […] 7APJ as a search model. […]
Target sequence in this assay (P31749 with tags, fused parts or gaps DEL120-128/S129A/G130S/INS132HT/E133D): as the sequence (P31749 with tags, fused parts or gaps E17K/DEL120-128/S129A/G130S/INS132HT/E133D) above, with K16E counted along it
Target sequence in this assay (as listed by the source partner): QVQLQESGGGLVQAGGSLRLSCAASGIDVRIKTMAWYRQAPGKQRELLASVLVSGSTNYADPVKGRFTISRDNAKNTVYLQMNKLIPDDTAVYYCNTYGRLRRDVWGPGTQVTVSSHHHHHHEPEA

AKT1 E17K [3] = target: T4, AKT1 E17K (Homo sapiens, UniProt P31749, DEL120-128/E133D/E17K/G130S/INS132HT/S129A); assay: Co-crystallization showing covalent complex formation with AKT1 E17K; conditions: AKT1(DrLink)-E17K-NB41 complex, electron density
T4 construct: Akt1(DrLink)-WT/E17K were gene synthesized and cloned by Gibson assembly into the pFastBac vector; His8 followed by TEV site (MSHHHHHHHHGSENLYFQS) (N); DrLink (replaced PH-kinase interdomain linker, part of the construct's name); made in house; host or cells: Akt1(DrLink): baculovirus/Sf9; NB41: E. coli Rosetta 2(DE3)pLysS
T4 sequence (P31749 with tags, fused parts or gaps E17K/DEL120-128/S129A/G130S/INS132HT/E133D): as the sequence (P31749 with tags, fused parts or gaps E17K/DEL120-128/S129A/G130S/INS132HT/E133D) above
Description: as §2, §3, §4, §5

AKT1 WT [4] = target: T3, AKT1 WT; assay: Compound 13/AKT1 WT co-crystallization complex, crystal structure; type: binding; conditions: FIG. 1C
Target sequence in this assay (P31749 with tags, fused parts or gaps DEL120-128/S129A/G130S/INS132HT/E133D): as the sequence (P31749 with tags, fused parts or gaps E17K/DEL120-128/S129A/G130S/INS132HT/E133D) above, with K16E counted along it

AKT1 E17K [5] = target: T5, AKT1 E17K (Homo sapiens, UniProt P31749, E17K); assay: Live cell AKT1 E17K target engagement by NanoBRET competitive probe displacement; type: cell-based; conditions: HEK293 cells transfected with kinase-NanoLuciferase fusion, 2 h at 37° C.
T5 construct: expressed in transfected cells; host or cells: HEK293
T5 sequence (P31749 whole entry E17K, the tested form may be a part): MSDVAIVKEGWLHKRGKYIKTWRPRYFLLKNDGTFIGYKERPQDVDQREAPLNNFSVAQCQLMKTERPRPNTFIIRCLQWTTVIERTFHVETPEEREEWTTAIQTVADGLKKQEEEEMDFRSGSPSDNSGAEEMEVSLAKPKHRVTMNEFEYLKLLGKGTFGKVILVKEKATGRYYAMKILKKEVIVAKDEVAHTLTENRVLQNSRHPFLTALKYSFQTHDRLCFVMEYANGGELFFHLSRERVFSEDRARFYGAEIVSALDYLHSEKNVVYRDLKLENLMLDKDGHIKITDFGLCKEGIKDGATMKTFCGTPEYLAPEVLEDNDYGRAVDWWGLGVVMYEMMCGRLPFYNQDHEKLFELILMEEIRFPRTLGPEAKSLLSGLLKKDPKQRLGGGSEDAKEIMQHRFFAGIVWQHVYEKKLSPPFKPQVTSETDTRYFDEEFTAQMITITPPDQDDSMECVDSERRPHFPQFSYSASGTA
Method in brief: as §1

AKT1 WT [6] = target: T6, AKT1 WT (Homo sapiens, UniProt P31749); assay: Live cell AKT1 WT target engagement by NanoBRET competitive probe displacement; type: cell-based; conditions: HEK293 cells transfected with kinase-NanoLuciferase fusion, 2 h at 37° C.
T6 construct: expressed in transfected cells; host or cells: HEK293
T6 sequence (P31749 whole entry, the tested form may be a part): as the sequence (P31749 whole entry E17K, the tested form may be a part) above, with K17E counted along it
Method in brief: as §1

Row | Compound | IC50 [1] [nM] | IC50 (AKT2) [nM] | interaction seen in the co-crystal structure (site of covalent attachment) (AKT E17K) | covalent bond formation in co-crystal structure (AKT1 WT [2]) | covalent bond formation in co-crystal structure (AKT1 E17K [3]) | interaction seen in the co-crystal structure (site of covalent attachment) (AKT1 WT [4]) | IC50 (AKT1 E17K [5]) [nM] | IC50 (AKT1 WT [6]) [nM]
1 | C=CC(=O)N1CCC(N[C@H]2CCc3cc(-n4c(-c5cccnc5N)nc5ccc(-n6cccn6)nc54)ccc32)CC1 [Example 13, 1-(4-{[(1S)-5-[2-(2-aminopyridin-3-yl)-5-(pyrazol-1-yl)imidazo[4,5-b]pyridin-3-yl]-2,3-dihydro-1H-inden-1-yl]amino}piperidin-1-yl)prop-2-en-1-one] | 144 | 224 | covalent bond between C296 cysteine residue of AKT E17K and Compound 13 | covalent bond formation with C296 | covalent bond formation with C296 | covalent bond between C296 cysteine residue of AKT1 WT and Compound 13 | 56.1 | 17
2 | C=CC(=O)N1CCC(N[C@H]2CCc3cc(-n4c(-c5cccnc5N)nc5ccc(-n6ccc(C7(C#N)CC7)n6)nc54)ccc32)CC1 [Example 322, (S)-1-(1-(3-(1-((1-acryloylpiperidin-4-yl)amino)-2,3-dihydro-1H-inden-5-yl)-2-(2-aminopyridin-3-yl)-3H-imidazo[4,5-b]pyridin-5-yl)-1H-pyrazol-3-yl)cyclopropane-1-carbonitrile] | 137 | 41.4 |  |  |  |  | 5.51 | 247
3 | C=CC(=O)N1CCC(N[C@H]2CCc3cc(-n4c(-c5cccnc5N)nc5c(OC)cc(-n6cccn6)nc54)ccc32)CC1 [Example 337, 1-(4-{[(1S)-5-[2-(2-aminopyridin-3-yl)-7-methoxy-5-(pyrazol-1-yl)imidazo[4,5-b]pyridin-3-yl]-2,3-dihydro-1H-inden-1-yl]amino}piperidin-1-yl)prop-2-en-1-one] | 99.5 | 29.4 |  |  |  |  | 6.33 | 30.3
4 | C=CC(=O)N1CCC(N[C@H]2CCc3cc(-n4c(-c5cccnc5N)nc5ccc(C(F)(F)F)nc54)ccc32)CC1 [Example 348] | 872 | 362 |  |  |  |  | 32 | 2670
5 | C=CC(=O)N1CCN(N[C@H]2CCc3cc(-n4c(-c5cccnc5N)nc5ccc(C6CC6)nc54)ccc32)CC1 [Example 349] | 1160 | 432 |  |  |  |  | 32 | 1640
6 | C=CC(=O)N1CCN(N[C@@H]2CCc3cc(-n4c(-c5cccnc5N)nc5ccc(C6CC6)nc54)ccc32)CC1 [Example 350] | 1090 | 416 |  |  |  |  | 72.7 | 2510
